Data on 24 molecules can be found in ChEMBL document CHEMBL4673200, “Hydride-induced Meisenheimer complex formation reflects activity of nitro aromatic anti-tuberculosis compounds” (RSC Med Chem, 2021).

In brackets after ≈: the same amount, converted by molar mass. Activity calls are given as the source filed them. The rule behind the calls is not given here. A value given as a limit tells only on which side of the number the result lay.

One experiment has as its system Vero. The experiment in a line: Cytotoxicity against African green monkey Vero cells assessed by reduction in cell viability incubated for 72 hrs by resazurin dye fluorescence based assay. To be noted: Chlorocebus sabaeus.
The subject of experiment [1] is Mycobacterium tuberculosis. The experiment in a line: Antitubercular activity against Mycobacterium tuberculosis H37Rv ATCC 27294 cultured in 7H12 media assessed as reduction in bacterial growth incubated for 7 days by resazurin dye fluorescence based assay. It counts as functional. The following applies: H37Rv ATCC 27294, 168 h, time 7 day.
Experiment [2] deals with Mycobacterium tuberculosis. Description: Antitubercular activity against Mycobacterium tuberculosis H37Rv ATCC 27294 cultured in GAS media assessed as reduction in bacterial growth incubated for 7 days by resazurin dye fluorescence based assay. The class given is functional. The following applies: H37Rv ATCC 27294, 168 h, time 7 day.
The test system of another experiment is Mycolicibacterium aurum. Description: Antitubercular activity against Mycobacterium aurum assessed as reduction in bacterial growth incubated for 42 hrs by broth microdilution assay. The class given is functional. A general note: Dilution methods test growth across graded concentrations, often in twofold steps.
For another experiment, the system named is Mycolicibacterium vaccae. Description: Antitubercular activity against Mycobacterium vaccae assessed as reduction in bacterial growth incubated for 42 hrs by broth microdilution assay. It counts as functional.
The target of experiment [3] is T1, Decaprenylphosphoryl-beta-D-ribose oxidase (Mycobacterium tuberculosis (strain ATCC 25618 / H37Rv)) (UniProt P9WJF1).
T1 sequence (whole entry): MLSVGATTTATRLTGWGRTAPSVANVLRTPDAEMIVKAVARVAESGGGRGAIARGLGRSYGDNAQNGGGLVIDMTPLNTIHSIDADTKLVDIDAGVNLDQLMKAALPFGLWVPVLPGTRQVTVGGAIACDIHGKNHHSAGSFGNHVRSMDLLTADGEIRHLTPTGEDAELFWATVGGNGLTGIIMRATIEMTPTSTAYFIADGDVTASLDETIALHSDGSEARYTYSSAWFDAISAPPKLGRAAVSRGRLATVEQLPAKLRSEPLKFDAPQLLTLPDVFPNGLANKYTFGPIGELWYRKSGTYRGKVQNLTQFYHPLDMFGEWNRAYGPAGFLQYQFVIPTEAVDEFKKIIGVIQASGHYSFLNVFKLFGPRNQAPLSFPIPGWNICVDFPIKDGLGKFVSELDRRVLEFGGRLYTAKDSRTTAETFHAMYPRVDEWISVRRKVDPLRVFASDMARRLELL
Description: Inhibition of Mycobacterium tuberculosis H37Rv DprE1 at 100 times of MIC incubated for 24 hrs by [14C]-acetate radioligand based thin layer chromatography.

The target in experiment [4] is T1, Decaprenylphosphoryl-beta-D-ribose oxidase (Mycobacterium tuberculosis (strain ATCC 25618 / H37Rv)). Description: Inhibition of reactivation of Mycobacterium tuberculosis H37Rv DprE1 at 100 times of MIC incubated for 24 hrs by [14C]-acetate radioligand based thin layer chromatography.

A word on the IC50: it is the concentration needed to halve the response being measured. In general, MIC refers to the lowest concentration that inhibits growth of the organism. `N#Cc1cc([N+](=O)[O-])ccc1N1CCN(c2ccc(C(F)(F)F)cc2)CC1` displayed an IC50 in the experiment with Vero of over 100 µM. Further, the values for the MIC in experiment [1] and in experiment [2] were over 5 µM and 5 µM (≈ 1.88 µg/mL), respectively.

For the molecule `CCOC(=O)c1sc2c([N+](=O)[O-])cc(C(F)(F)F)cc2[n+]1[O-]`, the MIC in experiment [1] is over 5 µM; in experiment [2], 4.97 µM (≈ 1.67 µg/mL).

Consider `N#Cc1cc([N+](=O)[O-])ccc1Nc1ccc(OC2CCNCC2)cc1`, for which the IC50 in the experiment on Vero was over 100 µM. The MIC in experiment [1] and in experiment [2] was over 5 µM throughout.

Regarding `O=C(NCc1ccc(N2CCC(c3ccc(OC(F)(F)F)cc3)CC2)cc1)c1sc2c([N+](=O)[O-])cc(C(F)(F)F)cc2[n+]1[O-]`, the MIC in the experiment on Mycolicibacterium aurum was over 1 µM; in the experiment on Mycolicibacterium vaccae, 0.02 µM (≈ 0.0128 µg/mL); in experiment [1] it was 0.025 µM (≈ 0.016 µg/mL); in experiment [2], 0.07 µM (≈ 0.0448 µg/mL). The molecule also displayed an IC50 in the experiment with Vero of 81 µM.

In turn, `C[C@H]1COC2(CCN(c3ccc([N+](=O)[O-])cc3C#N)CC2)O1` returned an IC50 in the experiment with Vero of over 100 µM. Moreover, the MIC in experiment [1] turned out to be 2.4 µM (≈ 0.728 µg/mL); in experiment [2] it was 2 µM (≈ 0.607 µg/mL).

Take `C[C@H]1COC2(CCN(C(=O)c3sc4c([N+](=O)[O-])cc(C(F)(F)F)cc4[n+]3[O-])CC2)O1`: the inhibition result in experiment [3] was “Active”. Besides, the MIC in the experiment with Mycolicibacterium aurum is over 1 µM; in the experiment with Mycolicibacterium vaccae, 0.015 µM (≈ 0.00671 µg/mL); in experiment [1], 0.23 µM (≈ 0.103 µg/mL); in experiment [2], 0.24 µM (≈ 0.107 µg/mL). Besides, the midpoint of inhibition in the experiment with Vero, the IC50, lay at 79.6 µM.

For `COc1ccc(CNC(=O)c2sc3c([N+](=O)[O-])cc(C(F)(F)F)cc3[n+]2[O-])cc1`, the MIC in the experiment on Mycolicibacterium aurum was over 1 µM; with Mycolicibacterium vaccae it was under 0.001 µM; in experiment [1], 0.01 µM (≈ 0.00427 µg/mL); in experiment [2] it was 0.01 µM (≈ 0.00427 µg/mL). For the same molecule, the IC50 in the experiment with Vero was determined as 76 µM.

Molecule `COc1ccc(CNc2ccc([N+](=O)[O-])cc2C#N)cc1` displayed an IC50 with Vero of over 100 µM. Further, the MIC in experiment [1] and in experiment [2] was over 5 µM each time.

Regarding `N#Cc1cc([N+](=O)[O-])ccc1-n1cnc2c(N)ncnc21`, the IC50 in the experiment with Vero was over 100 µM. The MIC in experiment [1] and in experiment [2] was over 5 µM throughout.

Molecule `O=[N+]([O-])c1cn2c(n1)OC[C@@H](OCc1ccc(OC(F)(F)F)cc1)C2` [PRETOMANID] showed an IC50 in the experiment on Vero of over 100 µM. In addition, the MIC came to 0.08 µM (≈ 0.0287 µg/mL) in experiment [1] and 0.2 µM (≈ 0.0719 µg/mL) in experiment [2].

The molecule `N#Cc1cc([N+](=O)[O-])ccc1NC1CC1` had an IC50 with Vero of over 100 µM. For the same molecule, the MIC in experiment [1] and in experiment [2] was over 5 µM in each case.

Take `COc1ccc(CNC(=O)c2nc3cc(C(F)(F)F)cc([N+](=O)[O-])c3s2)cc1`: the inhibition result in experiment [4] was “inactive”. The inhibition entry in experiment [3] was “Active”. For the same molecule, the MIC in the experiment on Mycolicibacterium aurum was over 1 µM; in the experiment with Mycolicibacterium vaccae, 0.008 µM (≈ 0.00329 µg/mL); in experiment [1], 0.7 µM (≈ 0.288 µg/mL); in experiment [2] it was 0.14 µM (≈ 0.0576 µg/mL). The molecule further displayed an IC50 in the experiment with Vero of over 100 µM.

In the experiment with Vero, `N#Cc1cc([N+](=O)[O-])ccc1N1CCC(Cc2ccccc2)CC1` had an IC50 of over 100 µM. Further, the MIC in experiment [1] was over 5 µM; in experiment [2], 2 µM (≈ 0.643 µg/mL).

With `O=c1nc(N2CCN(CC3CCCCC3)CC2)sc2c([N+](=O)[O-])cc(C(F)(F)F)cc12`, the inhibition entry in experiment [3] is “Active”.

For `CCc1nc2ccc(Cl)cn2c1C(=O)NCc1ccc(N2CCC(c3ccc(OC(F)(F)F)cc3)CC2)cc1` [TELACEBEC], the MIC in the experiment on Mycolicibacterium aurum was over 1 µM; with Mycolicibacterium vaccae it was 0.004 µM (≈ 0.00223 µg/mL); in experiment [1], 0.03 µM (≈ 0.0167 µg/mL); in experiment [2], 0.007 µM (≈ 0.0039 µg/mL). This molecule also showed an IC50 in the experiment on Vero of over 100 µM.

As to `O=C(NCc1ccc(N2CCC(c3ccc(OC(F)(F)F)cc3)CC2)cc1)c1nc2cc(C(F)(F)F)cc([N+](=O)[O-])c2s1`, the inhibition entry in experiment [4] is “inactive”. Moreover, in experiment [3], the inhibition result was “Active”. Moreover, the MIC in the experiment with Mycolicibacterium aurum was over 1 µM; in the experiment on Mycolicibacterium vaccae, 0.125 µM (≈ 0.0781 µg/mL); in experiment [1] it was 0.24 µM (≈ 0.15 µg/mL); in experiment [2], 0.13 µM (≈ 0.0812 µg/mL). Besides, the IC50 with Vero was over 100 µM.

In turn, `CC(Nc1ccc([N+](=O)[O-])cc1C#N)c1ccc(Cl)cc1` (stereo not given) returned an IC50 in the experiment on Vero of 29 µM. For the same molecule, the MIC was over 5 µM in experiment [1] and 5 µM (≈ 1.51 µg/mL) in experiment [2].

On to `O=C(NCc1ccc2c(c1)CCO2)c1sc2c([N+](=O)[O-])cc(C(F)(F)F)cc2[n+]1[O-]`, for which the minimal inhibitory concentration (MIC) in the experiment on Mycolicibacterium aurum was over 1 µM; in the experiment on Mycolicibacterium vaccae, under 0.001 µM; in experiment [1], 0.01 µM (≈ 0.00439 µg/mL); in experiment [2] it was under 0.002 µM. In addition, the IC50 in the experiment with Vero was over 100 µM.

In the case of `C[C@H]1COC2(CCN(c3nc(=O)c4cc(C(F)(F)F)cc([N+](=O)[O-])c4s3)CC2)O1` [BTZ-043], the inhibition entry in experiment [3] was “Active”. In addition, the MIC is over 1 µM with Mycolicibacterium aurum, under 0.001 µM with Mycolicibacterium vaccae, under 0.004 µM in experiment [1] and under 0.004 µM in experiment [2]. The same molecule came in with an IC50 with Vero of over 100 µM.

`N#Cc1cc([N+](=O)[O-])ccc1NCc1ccccn1`: in the experiment with Vero, the IC50 is over 100 µM. Further, the MIC in experiment [1] and in experiment [2] was over 5 µM each time.

As for `NC(=O)c1sc2c([N+](=O)[O-])cc(C(F)(F)F)cc2[n+]1[O-]` [CYCLAPOLIN 9], the values for the MIC in experiment [1] and in experiment [2] were 1.2 µM (≈ 0.369 µg/mL) and 2.19 µM (≈ 0.673 µg/mL), respectively.

In the experiment with Vero, `CC(C)(C)OC(=O)N1CCC(Oc2ccc(Nc3ccc([N+](=O)[O-])cc3C#N)cc2)CC1` returned an IC50 of over 100 µM. For the same molecule, the results for the minimum inhibitory concentration (MIC) in experiment [1] and in experiment [2] were over 5 µM and 3 µM (≈ 1.32 µg/mL), respectively.

For the molecule `N#Cc1cc([N+](=O)[O-])ccc1Oc1ccc(Cl)c(Cl)c1`, the IC50 with Vero was over 50 µM. Also, the results for the MIC in experiment [1] and in experiment [2] were over 50 µM and 45 µM (≈ 13.9 µg/mL), respectively.

For the molecule `N#Cc1cc([N+](=O)[O-])ccc1NCc1cccc(F)c1`, the IC50 with Vero is over 100 µM. For the same molecule, the figures for the MIC in experiment [1] and in experiment [2] were over 5 µM and 5 µM (≈ 1.36 µg/mL), respectively.
